# Reference: US12498382B2, “Biomarkers for vitiligo” (INCYTE CORPORATION, priority 2019, dated 2025)
# Test system: HaCaT cells
# Experiment: Concentrations of inflammatory mediators produced by HaCaT cells stimulated with TNFα and IFNγ in presence/absence of JAK inhibitors (ProCarta)
# Assay type: cell-based, human
# Summary of the method: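 HaCaT cells pre-treated 15 min with JAK inhibitors, then stimulated with TNFα and IFNγ (25 ng/mL each) at drug finals of 25, 50, 100 and 200 nM for 24 h at 37 °C. Secreted mediators in media measured by Luminex bead immunoassay; concentrations (pg/mL) from antigen standard curves.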
# [1] = TNFα+IFNγ 25 ng/mL each, drug conc. 1st of 4 rows (cell not shown; prob. 25 nM)
# [2] = TNFα+IFNγ 25 ng/mL each, drug conc. 2nd of 4 rows (cell not shown; prob. 50 nM)
# [3] = TNFα+IFNγ 25 ng/mL each, drug conc. 3rd of 4 rows (cell not shown; prob. 100 nM)
# [4] = TNFα+IFNγ 25 ng/mL each, drug conc. 4th of 4 rows (cell not shown; prob. 200 nM)
# [5] = drug present, concentration not given
smiles,measurement,setting,value
"C[C@@H](O)c1nc2cnc3ccsc3c2n1[C@H]1CC[C@H](CC#N)OC1 [Cpd D, ((2R,5S)-5-{2-[(1R)-1-hydroxyethyl]-1H-imidazo[4,5-d]thieno[3,2-b]pyridin-1-yl}tetrahydro-2H-pyran-2-yl)acetonitrile]",IFN gamma concentration,[1],24180.78 ± 2901.94 pg/mL
same,IL1RA concentration,[1],5760.33 ± 367.09 pg/mL
same,IL1 alpha concentration,[1],6.8 ± 0.39 pg/mL
same,IL1 beta concentration,[1],8.92 ± 0.42 pg/mL
same,IL2 concentration,[1],31.46 ± 1.56 pg/mL
same,IL4 concentration,[1],7.2 ± 1.25 pg/mL
same,IL5 concentration,[1],26.66 ± 1.72 pg/mL
same,IL6 concentration,[1],743.07 ± 36.3 pg/mL
same,IL7 concentration,[1],2.16 ± 0.11 pg/mL
same,IL8 concentration,[1],2820.21 ± 159.05 pg/mL
same,IL9 concentration,[1],3.7 ± 0^ pg/mL
same,IL10 concentration,[1],0.76 ± 0.08 pg/mL
same,IL12p70 concentration,[1],1.88 ± 0.19 pg/mL
same,IL13 concentration,[1],2.67 ± 0.24 pg/mL
same,IL15 concentration,[1],4.2 ± 0.86 pg/mL
same,IL17A concentration,[1],3.84 ± 0.3 pg/mL
same,IL18 concentration,[1],159.38 ± 4.31 pg/mL
same,IL21 concentration,[1],2.71 ± 0.18 pg/mL
same,IL22 concentration,[1],7.83 ± 0.75 pg/mL
same,IL23 concentration,[1],7.43 ± 0 pg/mL
same,IL27 concentration,[1],7.42 ± 0.9 pg/mL
same,IL31 concentration,[1],2.97 ± 0.37 pg/mL
same,IP-10/CXCL10 concentration,[1],3903.67 ± 366.97 pg/mL
same,LIF concentration,[1],65.71 ± 2.6 pg/mL
same,MCP1 concentration,[1],21968.74 ± 4662.32 pg/mL
same,MIP1 alpha concentration,[1],102.06 ± 4.18 pg/mL
same,MIP1 beta concentration,[1],313.64 ± 8.9 pg/mL
same,PDGF-BB concentration,[1],4.23 ± 0.18 pg/mL
same,PIGF-1 concentration,[1],59.56 ± 3.2 pg/mL
same,RANTES concentration,[1],237.57 ± 17.46 pg/mL
same,SCF concentration,[1],4.18 ± 0.24 pg/mL
same,SDF-1 alpha concentration,[1],3456.41 ± 158.06 pg/mL
same,TNF alpha concentration,[1],8951.15 ± 870.67 pg/mL
same,TNF beta concentration,[1],4.62 ± 0.49 pg/mL
same,VEGF-A concentration,[1],1303.84 ± 56.86 pg/mL
same,VEGF-D concentration,[1],8.7 ± 0.52 pg/mL
same,IFN gamma concentration,[2],25506.14 ± 3960.86 pg/mL
same,IL1RA concentration,[2],5709.52 ± 391.3 pg/mL
same,IL1 alpha concentration,[2],6.76 ± 0.4 pg/mL
same,IL1 beta concentration,[2],8.82 ± 0.46 pg/mL
same,IL2 concentration,[2],29.16 ± 2.01 pg/mL
same,IL4 concentration,[2],5.9 ± 1.18 pg/mL
same,IL5 concentration,[2],28.49 ± 1.85 pg/mL
same,IL6 concentration,[2],698.04 ± 29.79 pg/mL
same,IL7 concentration,[2],2.14 ± 0.07 pg/mL
same,IL8 concentration,[2],2907.08 ± 193.16 pg/mL
same,IL9 concentration,[2],3.37 ± 0.33 pg/mL
same,IL10 concentration,[2],0.67 ± 0.07 pg/mL
same,IL12p70 concentration,[2],1.69 ± 0.19 pg/mL
same,IL13 concentration,[2],2.21 ± 0.27 pg/mL
same,IL15 concentration,[2],2.82 ± 0.72 pg/mL
same,IL17A concentration,[2],4.15 ± 0.57 pg/mL
same,IL18 concentration,[2],156.12 ± 3.47 pg/mL
same,IL21 concentration,[2],2.13 ± 0.39 pg/mL
same,IL22 concentration,[2],8.9 ± 0^ pg/mL
same,IL23 concentration,[2],7.43 ± 0 pg/mL
same,IL27 concentration,[2],5.51 ± 1.25 pg/mL
same,IL31 concentration,[2],3.43 ± 0.31 pg/mL
same,IP-10/CXCL10 concentration,[2],3998.62 ± 456.34 pg/mL
same,LIF concentration,[2],66.01 ± 3.21 pg/mL
same,MCP1 concentration,[2],25836.84 ± 10636.84 pg/mL
same,MIP1 alpha concentration,[2],96.35 ± 3.57 pg/mL
same,MIP1 beta concentration,[2],316.87 ± 10.18 pg/mL
same,PDGF-BB concentration,[2],4.36 ± 0.18 pg/mL
same,PIGF-1 concentration,[2],56.72 ± 3.48 pg/mL
same,RANTES concentration,[2],237.55 ± 21.78 pg/mL
same,SCF concentration,[2],4.1 ± 0.21 pg/mL
same,SDF-1 alpha concentration,[2],3450.69 ± 158.13 pg/mL
same,TNF alpha concentration,[2],9862.6 ± 1041^ pg/mL
same,TNF beta concentration,[2],5.03 ± 0.38 pg/mL
same,VEGF-A concentration,[2],1286.84 ± 61.29 pg/mL
same,VEGF-D concentration,[2],8.49 ± 0.72 pg/mL
same,IFN gamma concentration,[3],29392.77 ± 4832.25 pg/mL
same,IL1RA concentration,[3],5879.83 ± 410.09 pg/mL
same,IL1 alpha concentration,[3],6.92 ± 0.4 pg/mL
same,IL1 beta concentration,[3],8.63 ± 0.36 pg/mL
same,IL2 concentration,[3],29.23 ± 1.62 pg/mL
same,IL4 concentration,[3],5.13 ± 0.78 pg/mL
same,IL5 concentration,[3],27.43 ± 2.11 pg/mL
same,IL6 concentration,[3],703.99 ± 42.22 pg/mL
same,IL7 concentration,[3],2.15 ± 0.14 pg/mL
same,IL8 concentration,[3],3061.2 ± 217.26 pg/mL
same,IL9 concentration,[3],3.58 ± 0.24 pg/mL
same,IL10 concentration,[3],0.81 ± 0.07 pg/mL
same,IL12p70 concentration,[3],1.75 ± 0.22 pg/mL
same,IL13 concentration,[3],2.98 ± 0.4 pg/mL
same,IL15 concentration,[3],3.29 ± 0.9 pg/mL
same,IL17A concentration,[3],3.57 ± 0.45 pg/mL
same,IL18 concentration,[3],156.97 ± 5.2 pg/mL
same,IL21 concentration,[3],2.64 ± 0.24 pg/mL
same,IL22 concentration,[3],8.21 ± 0.69 pg/mL
same,IL23 concentration,[3],7.43 ± 0 pg/mL
same,IL27 concentration,[3],5.92 ± 0.88 pg/mL
same,IL31 concentration,[3],4.14 ± 0.48 pg/mL
same,IP-10/CXCL10 concentration,[3],4100.26 ± 502.48 pg/mL
same,LIF concentration,[3],70.02 ± 3.89 pg/mL
same,MCP1 concentration,[3],15200 ± 0 pg/mL
same,MIP1 alpha concentration,[3],96.22 ± 3.58 pg/mL
same,MIP1 beta concentration,[3],317.95 ± 8.1 pg/mL
same,PDGF-BB concentration,[3],4.71 ± 0.23 pg/mL
same,PIGF-1 concentration,[3],59.49 ± 3.52 pg/mL
same,RANTES concentration,[3],241.39 ± 22.79 pg/mL
same,SCF concentration,[3],4.29 ± 0.29 pg/mL
same,SDF-1 alpha concentration,[3],3563.68 ± 157.35 pg/mL
same,TNF alpha concentration,[3],10525.46 ± 1077.11 pg/mL
same,TNF beta concentration,[3],4.47 ± 0.37 pg/mL
same,VEGF-A concentration,[3],1346.72 ± 67.56 pg/mL
same,VEGF-D concentration,[3],9.64 ± 0.91 pg/mL
same,IFN gamma concentration,[4],26972.77 ± 4164.13 pg/mL
same,IL1RA concentration,[4],5450.17 ± 388.11 pg/mL
same,IL1 alpha concentration,[4],6.3 ± 0.35 pg/mL
same,IL1 beta concentration,[4],8.81 ± 0.35 pg/mL
same,IL2 concentration,[4],31.88 ± 1.61 pg/mL
same,IL4 concentration,[4],8.19 ± 1.39 pg/mL
same,IL5 concentration,[4],25.61 ± 1.98 pg/mL
same,IL6 concentration,[4],646.2 ± 32.46 pg/mL
same,IL7 concentration,[4],2.14 ± 0.12 pg/mL
same,IL8 concentration,[4],2893.51 ± 190.51 pg/mL
same,IL9 concentration,[4],4.44 ± 0.54 pg/mL
same,IL10 concentration,[4],0.84 ± 0.08 pg/mL
same,IL12p70 concentration,[4],1.7 ± 0.2 pg/mL
same,IL13 concentration,[4],2.52 ± 0.42 pg/mL
same,IL15 concentration,[4],3.37 ± 0.8 pg/mL
same,IL17A concentration,[4],4.04 ± 0.49 pg/mL
same,IL18 concentration,[4],155.77 ± 4.15 pg/mL
same,IL21 concentration,[4],2.84 ± 0.04 pg/mL
same,IL22 concentration,[4],8.39 ± 0.51 pg/mL
same,IL23 concentration,[4],7.43 ± 0 pg/mL
same,IL27 concentration,[4],8.3 ± 1.2 pg/mL
same,IL31 concentration,[4],3.05 ± 0.38 pg/mL
same,IP-10/CXCL10 concentration,[4],4407.56 ± 645.63 pg/mL
same,LIF concentration,[4],67.62 ± 3.58 pg/mL
same,MCP1 concentration,[4],18512.1 ± 3312.1 pg/mL
same,MIP1 alpha concentration,[4],88.49 ± 5.06 pg/mL
same,MIP1 beta concentration,[4],316.74 ± 9.29 pg/mL
same,PDGF-BB concentration,[4],4.75 ± 0.16 pg/mL
same,PIGF-1 concentration,[4],55.63 ± 3.23 pg/mL
same,RANTES concentration,[4],238.51 ± 23.12 pg/mL
same,SCF concentration,[4],4.07 ± 0.21 pg/mL
same,SDF-1 alpha concentration,[4],3464.97 ± 155.2 pg/mL
same,TNF alpha concentration,[4],9777.73 ± 966.87 pg/mL
same,TNF beta concentration,[4],4.96 ± 0.56 pg/mL
same,VEGF-A concentration,[4],1256.89 ± 60.57 pg/mL
same,VEGF-D concentration,[4],8.03 ± 0.93 pg/mL
same,IL1 alpha concentration,[5],0.26 ± 0.05 pg/mL
same,IL1 beta concentration,[5],0.98 ± 0.12 pg/mL
same,IL2 concentration,[5],2.4 ± 0.09 pg/mL
same,IL4 concentration,[5],5.34 ± 0.89 pg/mL
same,IL5 concentration,[5],2.88 ± 0.36 pg/mL
same,IL6 concentration,[5],28.84 ± 1.89 pg/mL
same,IL7 concentration,[5],3.44 ± 0.16 pg/mL
same,IL8 concentration,[5],257.62 ± 7.07 pg/mL
same,IL9 concentration,[5],3.98 ± 0.36 pg/mL
same,IL10 concentration,[5],0.43 ± 0.11 pg/mL
same,IL12p70 concentration,[5],2.15 ± 0.26 pg/mL
same,IL13 concentration,[5],1.26 ± 0.15 pg/mL
same,IL15 concentration,[5],3.2 ± 0.71 pg/mL
same,IL17A concentration,[5],1.22 ± 0.2 pg/mL
same,IL18 concentration,[5],6.54 ± 0.37 pg/mL
same,IL21 concentration,[5],2.5 ± 0.3 pg/mL
same,IL22 concentration,[5],8.08 ± 0.82 pg/mL
same,IL23 concentration,[5],6.43 ± 1.28 pg/mL
same,IL27 concentration,[5],11.9 ± 2.31 pg/mL
same,IL31 concentration,[5],3.7 ± 0.06 pg/mL
same,IP-10/CXCL10 concentration,[5],20.23 ± 0.48 pg/mL
same,LIF concentration,[5],22.66 ± 0.82 pg/mL
same,MCP1 concentration,[5],1306.83 ± 54.65 pg/mL
same,MIP1 alpha concentration,[5],2.75 ± 0.26 pg/mL
same,MIP1 beta concentration,[5],113.08 ± 4.82 pg/mL
same,PDGF-BB concentration,[5],1.93 ± 0.18 pg/mL
same,PIGF-1 concentration,[5],20.55 ± 1.16 pg/mL
same,RANTES concentration,[5],10.17 ± 0.54 pg/mL
same,SCF concentration,[5],1.91 ± 0.15 pg/mL
same,SDF-1 alpha concentration,[5],990.69 ± 48.87 pg/mL
same,TNF alpha concentration,[5],2.41 ± 0.7 pg/mL
same,TNF beta concentration,[5],4.42 ± 0.57 pg/mL
same,VEGF-A concentration,[5],598.11 ± 16.67 pg/mL
same,VEGF-D concentration,[5],3.55 ± 0.66 pg/mL
